This note sets out measurements from patent US9994528B2, “Certain amino-pyridines and amino-triazines, compositions thereof, and methods for their use” (Cytokinetics, Inc., priority 2010, dated 2018).

This test deals with rabbit skeletal myofibrils (approximately 90% fast fibers). Put plainly: Activation of fast skeletal myofibrils (PUMA coupled-enzyme ATPase assay). Type of test: biochemical. Particulars: AC1.4 = concentration at which the compound increased the enzymatic activity by 40%; myofibril suspension at calcium level pCa25; PM12 buffer pH 6.8. The method in brief:
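Fast skeletal myofibrils from rabbit psoas muscle (roughly 90% fast fibers) were homogenized, washed with Triton X-100 to strip membranes, and frozen in 10% sucrose at −80° C. Their calcium-regulated ATPase activity was measured at pCa25 in PM12 buffer (12 mM Pipes, 2 mM MgCl2, 1 mM DTT, pH 6.8). A pyruvate kinase/lactate dehydrogenase system coupled ADP regeneration to NADH oxidation, read at 340 nm.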
In the case of `Cc1cccc(C(C)(C)Nc2ncc(-c3cc(C(N)=O)ccc3F)nn2)n1` [4-fluoro-3-(3-{[1-methyl-1-(6-methyl(2-pyridyl))ethyl]amino}(1,2,4-triazin-6-yl))benzamide], the “Mean AC1.4” value is given as “C (C=10-20 uM)”.
The same measure for `CNC(=O)c1cccc(-c2cnc(NC[C@]3(c4ncccc4F)C[C@H](F)C3)nn2)c1` [{3-[3-({[3-fluoro-1-(3-fluoro(2-pyridyl))cyclobulyl]methyl}amino)(1,2,4-triazin-6-yl)]phenyl}-N-methylcarboxamide]: “B (B=1-10 uM)”; for `CNC(=O)c1ccc(F)c(-c2cnc(NCC3(c4ncccc4Cl)CC(F)(F)C3)nn2)c1` [{3-[3-({[1-(3-chloro(2-pyridyl))-3,3-difluorocyclobulyl]methyl}amino)(1,2,4-triazin-6-yl)]-4-fluorophenyl}-N-methylcarboxamide]: “B (B=1-10 uM)”; for `C[C@@H](CNc1ccc(-c2cccc(C(N)=O)c2)cn1)c1ccc(F)cc1` [3-(6-{[(2R)-2-(4-fluorophenyl)propyl]amino}-3-pyridyl)benzamide]: “B (B=1-10 uM)”.
In the case of `CC(C)(Nc1ncc(-c2cc(C(N)=O)ccc2F)nn1)c1ncccc1F` [4-fluoro-3-(3-{[1-(3-fluoro(2-pyridyl))-isopropyl]amino}(1,2,4-triazin-6-yl))benzamide], the “Mean AC1.4” value is “B (B=1-10 uM)”.
As to `NC(=O)c1cccc(-c2ccc(NCCc3ccc(F)cc3)nc2)c1` [3-(6-{[2-(4-fluorophenyl)ethyl]amino}-3-pyridyl)benzamide], the “Mean AC1.4” value was “D (D=>20 uM)”.
For `CC(Nc1ncc(-c2cc(C(N)=O)ccc2F)nn1)c1cccc(OC(F)F)n1` (centres unmarked) [3-[3-({[6-(difluoromethoxy)(2-pyridyl)]ethyl}amino)(1,2,4-triazin-6-yl)]-4-fluorobenzamide], the “Mean AC1.4” value is given as “C (C=10-20 uM)”.
For `CC(C)(Nc1ncc(-c2cc(C(N)=O)ccc2F)nn1)c1ncccc1C(F)F` [3-[3-({1-[3-(difluoromethyl)(2-pyridyl)]-isopropyl}amino)(1,2,4-triazin-6-yl)]-4-fluorobenzamide] the value was “C (C=10-20 uM)”; for `CC(C)(Nc1ncc(-c2nccs2)nn1)c1ncccc1F` [[1-(3-fluoro(2-pyridyl))-isopropyl](6-(1,3-thiazol-2-yl)(1,2,4-triazin-3-yl))amine], “D (D=>20 uM)”; for `CC(Nc1ncc(-c2cc(C(N)=O)ccc2F)nn1)c1ncccc1F` (centres unmarked) [4-fluoro-3-(3-{[(3-fluoro(2-pyridyl))ethyl]amino}(1,2,4-triazin-6-yl))benzamide], “C (C=10-20 uM)”.
On to `CC(C)(CNc1ccc(-c2ccc(C(N)=O)cc2)cn1)c1ccc(F)cc1` [4-(6-{[2-(4-fluorophenyl)-2-methylpropyl]amino}-3-pyridyl)benzamide], for which the “Mean AC1.4” value is reported as “B (B=1-10 uM)”.
For `CC(C)(CNc1ncc(-c2cccc(C(N)=O)c2)nn1)c1ccc(F)cc1` [3-(3-{[2-(4-fluorophenyl)-2-methylpropyl]amino}-1,2,4-triazin-6-yl)benzamide] the value was “B (B=1-10 uM)”; for `CC(C)(Nc1ncc(-c2cc(N)ccc2F)nn1)c1ncccc1F` [[6-(3-amino-6-fluorophenyl)(1,2,4-triazin-3-yl)][1-(3-fluoro(2-pyridyl))-isopropyl]amine], “B (B=1-10 uM)”.
With `CC(C)(Nc1ncc(-c2cccc(C(N)=O)c2)nn1)c1ncccc1Cl` [3-(3-{[1-(3-chloro(2-pyridyl))-isopropyl]amino}-1,2,4-triazin-6-yl)benzamide], the “Mean AC1.4” value was “B (B=1-10 uM)”.
In the case of `CC(C)(CNc1ncc(-c2ccc3[nH]nc(N)c3c2)nn1)c1ccc(F)cc1` [[6-(3-amino(1H-indazol-5-yl))(1,2,4-triazin-3-yl)][2-(4-fluorophenyl)-2-methylpropyl]amine], the “Mean AC1.4” value is given as “A (A=<1 uM)”.
As for `COC(=O)NCc1ccc(NCC(C)(C)c2ccc(F)cc2)nc1` [N-[(6-{[2-(4-fluorophenyl)-2-methylpropyl]amino}(3-pyridyl))methyl]methoxycarboxamide], the “Mean AC1.4” value is listed as “D (D=>20 uM)”.
`CC(C)(Nc1ncc(-c2ncc(CN)s2)nn1)c1ncccc1Cl` [{6-[5-(aminomethyl)(1,3-thiazol-2-yl)](1,2,4-triazin-3-yl)}[1-(3-chloro(2-pyridyl))-isopropyl]amine]: the “Mean AC1.4” value is “D (D=>20 uM)”.
